Source: US9072293B2, “Cyclopropenes and method for applying cyclopropenes to agricultural products or crops” (Erum Biotechnologies Inc., priority 2010, dated 2015)
Several values for one entry are separate records, joined by “and”; a condition that tells them apart may be missing. Identical values can stand only once.

What was measured:
[1] = Relative chemical stability of cyclopropenes measured by 1H-NMR; assay type: physicochemical; conditions: 1H-NMR, CDCl3, stored at −20° C. or room temperature; relative to chain length 1
From the text: A variety of analysis methods can be used to analyze the derivatives of Formula 6, since the absorbance of cyclopropenes containing an aryl group can be easily measured in the UV range. It can be confirmed that the chemical stability of the derivatives increases, when the length of chains to link an aryl ring to a cyclopropene ring is 2 or more. […] It is supposed that the stability of cyclopropenes increase due to the fact that π electrons of aryl groups affect π electrons of cyclopropenes.
The following Table 1 summarizes the relative chemical stability of cyclopropenes having a chain length of 2, 3, 4 or 5, based on the chemical stability of cyclopropenes having a chain length of 1. In the case of cyclopropene having a chain length of 1, the structure thereof can be confirmed via ^1H-NMR within one hour following synthesis (degraded to a level of 50% or more within one hour at 30° C.). In the case of cyclopropene having a chain length of zero, synthesis thereof was attempted in accordance with the present invention, but was impossible by a conventional method. Meanwhile, in the case of cyclopropenes having a chain length of 2 or more, the structure thereof can be precisely confirmed by ^1H-NMR as well as ^13C-NMR. The stability of these cyclopropenes was measured by ^1H-NMR while NMR cells (CDCl3) were stored at −20° C. or room temperature. In particular, cyclopropenes having chains of 3 or more were so stable that their half-life reached 5 days or longer at −20° C. or lower. In ^1H-NMR analysis, the stability was evaluated by comparing integral values at 4 to 6.5 ppm (1H) and 0.8 to 0.9 ppm (2H), characteristic peaks of 1-alkylcyclopropenes, using a small amount of 1,1,3,3-tetramethylurea (2.80 ppm) as an internal standard. Furthermore, the stability was also qualitatively evaluated by comparing integral value of the peak newly generated adjacent to the peak of the olefin proton of cyclopropene ring, as a 1-alkylcyclopropene compound is decomposed.

tomato = experiment: Experimental Example 3: Efficacy test on tomato for other drugs (emulsion and oil-based formulation); assay type: in vivo; set-up: key: an area in which the surface of tomato was colored in pink was 10% or less; an area in which the surface of tomato was completely colored in red was 10 to 40%; 2: an area in which the surface of tomato was completely colored in red was 40 to 70%; 3: an area in which the surface of tomato was completely colored in red was 70% or more and the bottom area remained green; 4: an area in which the surface of tomato was most colored in red and only a part of (0 to 10%) the bottom area remained green; 5: the surface of tomato did not entirely color in green; conditions: individual tomatoes n=4
Protocol: At this time, the tops of tomatoes most early turned red, while the bottoms thereof most lately turned red. For this reason, in order to accurately evaluate the difference in reddening, the coloring evaluated was based on the area of red color, rather than the color of tomatoes. […] Accordingly, the grade level is proportional to the rate at which the tomatoes ripened.
1.0 mM emulsions and oil-based formulations of four agents, i.e., 1-(2-(4-methoxyphenyl)ethyl)cyclopropene, 1-(3-(4-methoxyphenyl)propyl)cyclopropene, 1-(3-phenoxypropyl)cyclopropene and 1-(4-phenoxybutyl)cyclopropene were prepared in accordance with Examples 1 and 2.
The tomatoes were screened in the same manner as in Experimental Example 1 and divided into 9 groups (n=4), i.e., a non-treated group and 4 emulsion-type agent groups and 4 oil-based formulation-type agent groups. Tomatoes were treated with the previously prepared agent using a household sprayer such that the surface thereof was saturated. The tomatoes were stood at room temperature (25-30° C.) for 3 days and a reddening level thereof was evaluated based on grades of 0 to 5.

[2] = 1.0 mM Emulsion, Day 0, room temperature (25-30° C.)
[3] = 1.0 mM Emulsion, Day 1, room temperature (25-30° C.)
[4] = 1.0 mM Emulsion, Day 2, room temperature (25-30° C.)
[5] = 1.0 mM Emulsion, Day 3, room temperature (25-30° C.)
[6] = 1.0 mM Oil-based formulation, Day 0, room temperature (25-30° C.)
[7] = 1.0 mM Oil-based formulation, Day 1, room temperature (25-30° C.)
[8] = 1.0 mM Oil-based formulation, Day 2, room temperature (25-30° C.)
[9] = 1.0 mM Oil-based formulation, Day 3, room temperature (25-30° C.)

| Stability (relative chemical stability, based on cyclopropenes having a chain length of 1) [1] | Compound | reddening level (grade 0 to 5) (tomato; [2]) | reddening level (grade 0 to 5) (tomato; [3]) | reddening level (grade 0 to 5) (tomato; [4]) | reddening level (grade 0 to 5) (tomato; [5]) | reddening level (grade 0 to 5) (tomato; [6]) | reddening level (grade 0 to 5) (tomato; [7]) | reddening level (grade 0 to 5) (tomato; [8]) | reddening level (grade 0 to 5) (tomato; [9]) |
| --- | --- | --- | --- | --- | --- | --- | --- | --- | --- |
| >>10 | C1=C(CCCOc2ccccc2)C1 [(3-Phenoxypropyl), 1-(3-phenoxypropyl)cyclopropene] | 0 (an area in which the surface of tomato was colored in pink was 10% or less) (2×) and 1 (an area in which the surface of tomato was completely colored in red was 10 to 40%) and 2 (an area in which the surface of tomato was completely colored in red was 40 to 70%) | 0 (an area in which the surface of tomato was colored in pink was 10% or less) (2×) and 1 (an area in which the surface of tomato was completely colored in red was 10 to 40%) and 2 (an area in which the surface of tomato was completely colored in red was 40 to 70%) | 1 (an area in which the surface of tomato was completely colored in red was 10 to 40%) (2×) and 2 (an area in which the surface of tomato was completely colored in red was 40 to 70%) (2×) | 2 (an area in which the surface of tomato was completely colored in red was 40 to 70%) (2×) and 3 (an area in which the surface of tomato was completely colored in red was 70% or more and the bottom area remained green) (2×) | 0 (an area in which the surface of tomato was colored in pink was 10% or less) (2×) and 1 (an area in which the surface of tomato was completely colored in red was 10 to 40%) and 2 (an area in which the surface of tomato was completely colored in red was 40 to 70%) | 0 (an area in which the surface of tomato was colored in pink was 10% or less) (2×) and 1 (an area in which the surface of tomato was completely colored in red was 10 to 40%) and 2 (an area in which the surface of tomato was completely colored in red was 40 to 70%) | 0 (an area in which the surface of tomato was colored in pink was 10% or less) (2×) and 2 (an area in which the surface of tomato was completely colored in red was 40 to 70%) and 3 (an area in which the surface of tomato was completely colored in red was 70% or more and the bottom area remained green) | 1 (an area in which the surface of tomato was completely colored in red was 10 to 40%) (2×) and 2 (an area in which the surface of tomato was completely colored in red was 40 to 70%) and 3 (an area in which the surface of tomato was completely colored in red was 70% or more and the bottom area remained green) |
| >>10 | C1=C(CCCCOc2ccccc2)C1 [(4-Phenoxybutyl), 1-(4-phenoxybutyl)cyclopropene] | 0 (an area in which the surface of tomato was colored in pink was 10% or less) (2×) and 1 (an area in which the surface of tomato was completely colored in red was 10 to 40%) and 2 (an area in which the surface of tomato was completely colored in red was 40 to 70%) | 0 (an area in which the surface of tomato was colored in pink was 10% or less) (2×) and 2 (an area in which the surface of tomato was completely colored in red was 40 to 70%) (2×) | 1 (an area in which the surface of tomato was completely colored in red was 10 to 40%) (2×) and 3 (an area in which the surface of tomato was completely colored in red was 70% or more and the bottom area remained green) (2×) | 2 (an area in which the surface of tomato was completely colored in red was 40 to 70%) (2×) and 4 (2×) | 0 (an area in which the surface of tomato was colored in pink was 10% or less) (2×) and 1 (an area in which the surface of tomato was completely colored in red was 10 to 40%) and 2 (an area in which the surface of tomato was completely colored in red was 40 to 70%) | 0 (an area in which the surface of tomato was colored in pink was 10% or less) (2×) and 1 (an area in which the surface of tomato was completely colored in red was 10 to 40%) and 2 (an area in which the surface of tomato was completely colored in red was 40 to 70%) | 0 (an area in which the surface of tomato was colored in pink was 10% or less) and 1 (an area in which the surface of tomato was completely colored in red was 10 to 40%) and 2 (an area in which the surface of tomato was completely colored in red was 40 to 70%) (2×) | 1 (an area in which the surface of tomato was completely colored in red was 10 to 40%) (2×) and 3 (an area in which the surface of tomato was completely colored in red was 70% or more and the bottom area remained green) (2×) |
| >10 | COc1ccc(CCC2=CC2)cc1 [(2-(4-Methoxyphenyl)ethyl), 1-(2-(4-methoxyphenyl)ethyl)cyclopropene] | 0 (an area in which the surface of tomato was colored in pink was 10% or less) (2×) and 1 (an area in which the surface of tomato was completely colored in red was 10 to 40%) and 2 (an area in which the surface of tomato was completely colored in red was 40 to 70%) | 1 (an area in which the surface of tomato was completely colored in red was 10 to 40%) (2×) and 3 (an area in which the surface of tomato was completely colored in red was 70% or more and the bottom area remained green) (2×) | 3 (an area in which the surface of tomato was completely colored in red was 70% or more and the bottom area remained green) (2×) and 4 and 5 | 4 (2×) and 5 (2×) | 0 (an area in which the surface of tomato was colored in pink was 10% or less) (2×) and 1 (an area in which the surface of tomato was completely colored in red was 10 to 40%) and 2 (an area in which the surface of tomato was completely colored in red was 40 to 70%) | 1 (an area in which the surface of tomato was completely colored in red was 10 to 40%) (2×) and 2 (an area in which the surface of tomato was completely colored in red was 40 to 70%) and 3 (an area in which the surface of tomato was completely colored in red was 70% or more and the bottom area remained green) | 2 (an area in which the surface of tomato was completely colored in red was 40 to 70%) (2×) and 3 (an area in which the surface of tomato was completely colored in red was 70% or more and the bottom area remained green) and 4 | 3 (an area in which the surface of tomato was completely colored in red was 70% or more and the bottom area remained green) (2×) and 4 and 5 |
